From ChEMBL document CHEMBL3885861, “Open TG-GATES”

Species: Rattus norvegicus
Experiment: Open TG-GATES - Regimen: Single
Assay type: toxicity, organism-based, Sprague-Dawley
Design: regimen Single, gender Male, age 6 weeks
Conditions: in vivo, po, 0 mg/kg, route gavage, dose level Control; for APTT / Bas / Eos / Fbg / Hb / Ht / Lym / MCH / MCHC / MCV / Mono / Neu / PT / Plat / RBC / Ret / WBC: tissue Blood; for KIDNEY_L / KIDNEY_R / KIDNEY_TOTAL: tissue Kidney; for LIVER: tissue Liver; for A/G / ALP / ALT / AST / BUN / CRE / Ca / Cl / DBIL / GLC / IP / K / LDH / Na / PL / RALB / TBIL / TC / TG / TP / gamma-GTP: tissue Plasma

SMILES: CCc1oc2ccccc2c1C(=O)c1cc(Br)c(O)c(Br)c1 [BENZBROMARONE]
- TERMINAL_BW (3 h): 217.1 g
- APTT (3 h): 17.3 s
- Bas (3 h): 0%
- Eos (3 h): 1%
- Fbg (3 h): 226.8 mg/dL
- Hb (3 h): 13.8 g/dL
- Ht (3 h): 40.9%
- Lym (3 h): 76.4%
- MCH (3 h): 22.2 pg
- MCHC (3 h): 33.8%
- MCV (3 h): 65.9 fL
- Mono (3 h): 7.4%
- Neu (3 h): 15.2%
- PT (3 h): 11.9 s
- Plat (3 h): 104.6 x10_4/uL
- RBC (3 h): 621.4 x10_4/ul
- Ret (3 h): 7.9%
- WBC (3 h): 127.8 x10_2/uL
- KIDNEY_L (3 h): 0.9 g
- KIDNEY_R (3 h): 0.9 g
- KIDNEY_TOTAL (3 h): 1.9 g
- LIVER (3 h): 10.1 g
- A/G (3 h): 2
- ALP (3 h): 745.6 IU/L
- ALT (3 h): 38.4 IU/L
- AST (3 h): 65.4 IU/L
- BUN (3 h): 12.2 mg/dL
- CRE (3 h): 0.6 mg/dL
- Ca (3 h): 10.8 mg/dL
- Cl (3 h): 104 meq/L
- DBIL (3 h): 0.046 mg/dL
- GLC (3 h): 191 mg/dL
- IP (3 h): 9.7 mg/dL
- K (3 h): 4.8 meq/L
- LDH (3 h): 81.6 IU/L
- Na (3 h): 138.8 meq/L
- PL (3 h): 143.6 mg/dL
- RALB (3 h): 3.8 g/dL
- TBIL (3 h): 0.3 mg/dL
- TC (3 h): 75 mg/dL
- TG (3 h): 84.2 mg/dL
- TP (3 h): 5.7 g/dL
- gamma-GTP (3 h): 1.8 IU/L
- TERMINAL_BW (6 h): 212.5 g
- APTT (6 h): 16 s
- Bas (6 h): 0%
- Eos (6 h): 1%
- Fbg (6 h): 230.2 mg/dL
- Hb (6 h): 14.1 g/dL
- Ht (6 h): 41.9%
- Lym (6 h): 79.8%
- MCH (6 h): 21.8 pg
- MCHC (6 h): 33.6%
- MCV (6 h): 65 fL
- Mono (6 h): 6.2%
- Neu (6 h): 13.6%
- PT (6 h): 12.2 s
- Plat (6 h): 103.2 x10_4/uL
- RBC (6 h): 645.6 x10_4/ul
- Ret (6 h): 7.9%
- WBC (6 h): 125.2 x10_2/uL
- KIDNEY_L (6 h): 1 g
- KIDNEY_R (6 h): 1 g
- KIDNEY_TOTAL (6 h): 2.1 g
- LIVER (6 h): 9.9 g
- A/G (6 h): 2
- ALP (6 h): 690.6 IU/L
- ALT (6 h): 28.2 IU/L
- AST (6 h): 57.4 IU/L
- BUN (6 h): 10.6 mg/dL
- CRE (6 h): 0.5 mg/dL
- Ca (6 h): 10.5 mg/dL
- Cl (6 h): 104.6 meq/L
- DBIL (6 h): 0.006 mg/dL
- GLC (6 h): 182.6 mg/dL
- IP (6 h): 9.7 mg/dL
- K (6 h): 5.2 meq/L
- LDH (6 h): 82.8 IU/L
- Na (6 h): 138.4 meq/L
- PL (6 h): 142.2 mg/dL
- RALB (6 h): 3.8 g/dL
- TBIL (6 h): 0.4 mg/dL
- TC (6 h): 72.4 mg/dL
- TG (6 h): 69.2 mg/dL
- TP (6 h): 5.7 g/dL
- gamma-GTP (6 h): 1.2 IU/L
- TERMINAL_BW (9 h): 208.2 g
- APTT (9 h): 16.2 s
- Bas (9 h): 0%
- Eos (9 h): 0.8%
- Fbg (9 h): 234.8 mg/dL
- Hb (9 h): 13.6 g/dL
- Ht (9 h): 40.6%
- Lym (9 h): 74.6%
- MCH (9 h): 21.6 pg
- MCHC (9 h): 33.5%
- MCV (9 h): 64.4 fL
- Mono (9 h): 5.2%
- Neu (9 h): 19.6%
- PT (9 h): 12.2 s
- Plat (9 h): 105.2 x10_4/uL
- RBC (9 h): 631 x10_4/ul
- Ret (9 h): 7.4%
- WBC (9 h): 95.5 x10_2/uL
- KIDNEY_L (9 h): 1 g
- KIDNEY_R (9 h): 1 g
- KIDNEY_TOTAL (9 h): 2 g
- LIVER (9 h): 9.1 g
- A/G (9 h): 1.9
- ALP (9 h): 623.4 IU/L
- ALT (9 h): 27 IU/L
- AST (9 h): 58.8 IU/L
- BUN (9 h): 11.2 mg/dL
- CRE (9 h): 0.6 mg/dL
- Ca (9 h): 10 mg/dL
- Cl (9 h): 105.2 meq/L
- DBIL (9 h): 0.008 mg/dL
- GLC (9 h): 181.2 mg/dL
- IP (9 h): 11 mg/dL
- K (9 h): 5 meq/L
- LDH (9 h): 86.8 IU/L
- Na (9 h): 139.4 meq/L
- PL (9 h): 126.4 mg/dL
- RALB (9 h): 3.8 g/dL
- TBIL (9 h): 0.3 mg/dL
- TC (9 h): 71.6 mg/dL
- TG (9 h): 42.8 mg/dL
- TP (9 h): 5.8 g/dL
- gamma-GTP (9 h): 1.2 IU/L
- TERMINAL_BW (24 h): 225.6 g
- APTT (24 h): 15.9 s
- Bas (24 h): 0%
- Eos (24 h): 1.2%
- Fbg (24 h): 220.2 mg/dL
- Hb (24 h): 13.9 g/dL
- Ht (24 h): 41.4%
- Lym (24 h): 75%
- MCH (24 h): 21.4 pg
- MCHC (24 h): 33.5%
- MCV (24 h): 63.7 fL
- Mono (24 h): 6.4%
- Neu (24 h): 17.4%
- PT (24 h): 11.9 s
- Plat (24 h): 115 x10_4/uL
- RBC (24 h): 650 x10_4/ul
- Ret (24 h): 7.2%
- WBC (24 h): 109 x10_2/uL
- KIDNEY_L (24 h): 1 g
- KIDNEY_R (24 h): 1 g
- KIDNEY_TOTAL (24 h): 2 g
- LIVER (24 h): 10.9 g
- A/G (24 h): 2.1
- ALP (24 h): 682.4 IU/L
- ALT (24 h): 32.2 IU/L
- AST (24 h): 61 IU/L
- BUN (24 h): 16.8 mg/dL
- CRE (24 h): 0.6 mg/dL
- Ca (24 h): 10.4 mg/dL
- Cl (24 h): 104.6 meq/L
- DBIL (24 h): 0.006 mg/dL
- GLC (24 h): 188.8 mg/dL
- IP (24 h): 7.8 mg/dL
- K (24 h): 5.3 meq/L
- LDH (24 h): 91.6 IU/L
- Na (24 h): 138.8 meq/L
- PL (24 h): 149.4 mg/dL
- RALB (24 h): 4 g/dL
- TBIL (24 h): 0.3 mg/dL
- TC (24 h): 81 mg/dL
- TG (24 h): 100.2 mg/dL
- TP (24 h): 5.9 g/dL
- gamma-GTP (24 h): 1 IU/L
